In US11851449B2, “Heterocyclic amide compounds having an RORvt inhibitory action” (TAKEDA PHARMACEUTICAL COMPANY LIMITED, priority 2013, dated 2023):

Columns and labels:
[1] = target: T1, RORγt (Homo sapiens, UniProt P51449); experiment: RORγt binding test (TR-FRET, fluorescent-labeled cholesterol); details: read-out: binding inhibitory rate (%) of fluorescent-labeled cholesterol to RORγt at test compound 1 μM
T1 sequence (P51449 1-497 isoform P51449-2): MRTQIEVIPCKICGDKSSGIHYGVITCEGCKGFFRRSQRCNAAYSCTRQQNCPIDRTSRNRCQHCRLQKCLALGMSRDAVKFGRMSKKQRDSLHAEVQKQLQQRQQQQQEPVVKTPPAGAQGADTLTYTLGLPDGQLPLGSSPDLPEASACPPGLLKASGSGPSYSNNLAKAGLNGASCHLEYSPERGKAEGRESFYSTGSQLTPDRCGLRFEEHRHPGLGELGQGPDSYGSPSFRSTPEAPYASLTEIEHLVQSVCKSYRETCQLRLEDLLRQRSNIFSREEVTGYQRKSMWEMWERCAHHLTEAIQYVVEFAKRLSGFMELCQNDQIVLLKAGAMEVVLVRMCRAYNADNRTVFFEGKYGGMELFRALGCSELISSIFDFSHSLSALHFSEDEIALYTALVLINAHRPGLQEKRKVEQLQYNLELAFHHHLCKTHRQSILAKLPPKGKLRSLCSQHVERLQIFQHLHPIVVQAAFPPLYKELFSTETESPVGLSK
Method: The binding activity of the test compound to RORγt was measured by a time resolved fluorescence resonance energy transfer method (TR-FRET) utilizing histidine-tagged RORγt, fluorescent-labeled cholesterol (BODIPY-cholesterol, AVIVA), and terbium-labeled anti-histidine tag antibody (Invitrogen). First, a test compound diluted with an assay buffer (20 mM Tris-HCl (pH 7.5), 100 mM NaCl, 1 mM DTT, 0.1% BSA) was added to a 384 well plate by 3 μL. Then, RORγt diluted with an assay buffer to 240 nM was added by 3 μL, after which fluorescent-labeled cholesterol diluted with the assay buffer to 12 μM was added by 3 μL, and the mixture was stood at room temperature for 20 min. Thereafter, a terbium-labeled anti-histidine tag antibody diluted with the assay buffer to 8 nM was added by 3 μL. The mixture was stood at room temperature for 20 min, and fluorescence intensity (excitation wavelength 320 nm, fluorescence wavelength 520 nm, delay time 100 microseconds) was measured by Envision (PerkinElmer).

[2] = target: T1, RORγt; experiment: Cofactor recruitment test (Alpha Screen, biotinylated SRC-1 peptide); assay type: biochemical; details: read-out: signal value inhibitory rate (%) at test compound 1 μM
Method: Cofactor Recruitment Test
Cofactor recruitment test was performed by Alpha Screen (Histidine Detection Kit, PerkinElmer) method. First, a test compound was diluted with an assay buffer (50 mM Tris-HCl (pH 7.5), 50 mM KCl, 1 mM DTT, 0.1% BSA) and added to a 384 well plate by 5 μL. […] The mixture was stood in a dark place for 1 hr, and the signal value was measured by Envision (PerkinElmer).

[3] = target: T1, RORγt; experiment: Jurkat reporter test (human IL-17 ROR response element luciferase reporter); assay type: cell-based; details: Jurkat, read-out: luminescence level inhibitory rate (%) at test compound 3 μM
Method: The Jurkat cells used for the reporter test were cultured in a culture medium (RPMI (Invitrogen), 10% FCS (AusGeneX), 100 U/mL penicillin, 100 μg/mL streptomycin). On the day of the test, 4×10^7 cells were recovered by a centrifugal operation (1000 rpm, 5 min.) and suspended in PBS (phosphate buffered saline) (Invitrogen). Thereafter, the cells were recovered again by a centrifugal operation, and suspended in 2 mL of R buffer (NEON transfection kit, Invitrogen). […] Gene transfer was performed by Electroporation apparatus (NEON, Invitrogen) under the conditions of pulse voltage 1350 V, interval 10 milliseconds, number of times 3. The cells after gene transfer were suspended in 40 mL of a reaction medium (RPMI, 10% Lipid reduced FCS (HyClone), 10 mM HEPES (pH 7.5), 100 U/mL penicillin, 100 μg/mL streptomycin, 5 μM lovastatin), and plated in a 96 well plate by 90 μL. A test compound diluted with the reaction medium was added by 10 μL, and the cells were cultured overnight in an incubator. Bright-Glo (Promega) was added by 100 μL, and the mixture was stirred at room temperature for 10 min, and the luminescence level was measured by Envision (PerkinElmer).

| Structure (SMILES) | inhibition at 1 µM [1] [%] | inhibition at 1 µM [2] [%] | inhibition at 3 µM [3] [%] |
| --- | --- | --- | --- |
| COc1ccc(C(NC(=O)N2CC(O)C2)C(=O)Nc2cc(F)c([Si](C)(C)C)c(F)c2)cc1 (stereo not drawn) [Example 41, N-(2-((3,5-difluoro-4-(trimethylsilyl)phenyl)amino)-1-(4-methoxyphenyl)-2-oxoethyl)-3-hydroxyazetidine-1-carboxamide] | 101 | 94.4 | 100 |
| COc1ccc(C(NC(=O)C2CNC(=O)C2)C(=O)Nc2cc(F)c([Si](C)(C)C)cc2F)cc1 (stereo not drawn) [Example 42, N-(2-((2,5-difluoro-4-(trimethylsilyl)phenyl)amino)-1-(4-methoxyphenyl)-2-oxoethyl)-5-oxopyrrolidine-3-carboxamide] | 102 | 88.5 | 99.1 |
| COCc1ccc(C(C(=O)Nc2cc(F)c([Si](C)(C)C)cc2F)N(C)C(=O)c2cc(O)no2)cc1 (stereo not drawn) [Example 43, N-(2-((2,5-difluoro-4-(trimethylsilyl)phenyl)amino)-1-(4-(methoxymethyl)phenyl)-2-oxoethyl)-3-hydroxy-N-methyl-1,2-oxazole-5-carboxamide] | 102 | 96.1 | 100 |
| COCc1ccc(C(NC(=O)Cc2nnc(C)o2)C(=O)Nc2cc(F)c([Si](C)(C)C)cc2F)cc1 (stereo not drawn) [Example 44, N-(2,5-difluoro-4-(trimethylsilyl)phenyl)-2-(4-(methoxymethyl)phenyl)-2-(((5-methyl-1,3,4-oxadiazol-2-yl)acetyl)amino)acetamide] | 102 | 95.7 | 102 |
| COCc1ccc(C(NC(=O)Cn2cnccc2=O)C(=O)Nc2cc(F)c([Si](C)(C)C)cc2F)cc1 (stereo not drawn) [Example 45, N-(2,5-difluoro-4-(trimethylsilyl)phenyl)-2-(4-(methoxymethyl)phenyl)-2-(((6-oxopyrimidin-1(6H)-yl)acetyl)amino)acetamide] | 102 | 94.1 | 101 |
| COc1ccc(C(NC(=O)Cn2ncc3ccccc32)C(=O)Nc2cc(F)c([Si](C)(C)C)cc2F)cc1 (stereo not drawn) [Example 46, N-(2,5-difluoro-4-(trimethylsilyl)phenyl)-2-((1H-indazol-1-ylacetyl)amino)-2-(4-methoxyphenyl)acetamide] | 99.5 | 87.2 | 101 |
| COCc1ccc(C(NC(=O)Cn2ncc3ccccc32)C(=O)Nc2cc(F)c([Si](C)(C)C)cc2F)cc1 (stereo not drawn) [Example 47, N-(2,5-difluoro-4-(trimethylsilyl)phenyl)-2-((1H-indazol-1-ylacetyl)amino)-2-(4-(methoxymethyl)phenyl)acetamide] | 100 | 92.4 | 100 |
| COc1ccc(C(C(=O)Nc2ccc([Si](C)(C)C)c(Cl)c2)N(C)C(=O)c2cc(O)no2)cc1 (stereo not drawn) [Example 48, N-(2-((3-chloro-4-(trimethylsilyl)phenyl)amino)-1-(4-methoxyphenyl)-2-oxoethyl)-3-hydroxy-N-methyl-1,2-oxazole-5-carboxamide] | 103 | 73 | 95.7 |
| COCc1ccc([C@@H](NC(=O)[C@@H]2CNC(=O)C2)C(=O)Nc2ccc([Si](C)(C)C)c(F)c2)cc1 [Example 49, (3S)—N-((1R)-2-((3-fluoro-4-(trimethylsilyl)phenyl)amino)-1-(4-(methoxymethyl)phenyl)-2-oxoethyl)-5-oxopyrrolidine-3-carboxamide] | 101 | 96.9 | 98.4 |
| COc1ccc([C@@H](NC(=O)[C@@H]2CNC(=O)C2)C(=O)Nc2ccc([Si](C)(C)C)c(F)c2)cc1 [Example 50, (3S)—N-((1R)-2-((3-fluoro-4-(trimethylsilyl)phenyl)amino)-1-(4-methoxyphenyl)-2-oxoethyl)-5-oxopyrrolidine-3-carboxamide] | 102 | 91.5 | 98 |
| COCc1ccc([C@@H](NC(=O)[C@@H]2CNC(=O)C2)C(=O)Nc2cc(F)c([Si](C)(C)C)cc2F)cc1 [Example 51, (3S)—N-((1R)-2-((2,5-difluoro-4-(trimethylsilyl)phenyl)amino)-1-(4-(methoxymethyl)phenyl)-2-oxoethyl)-5-oxopyrrolidine-3-carboxamide] | 102 | 97.3 | 98 |
| COCc1ccc([C@@H](NC(=O)[C@@H]2CNC(=O)C2)C(=O)Nc2cc(F)c([Si](C)(C)C)c(F)c2)cc1 [Example 52, (3S)—N-((1R)-2-((3,5-difluoro-4-(trimethylsilyl)phenyl)amino)-1-(4-(methoxymethyl)phenyl)-2-oxoethyl)-5-oxopyrrolidine-3-carboxamide] | 102 | 98.7 | 100 |
| COCc1ccc([C@@H](NC(=O)Cn2cnccc2=O)C(=O)Nc2ccc([Si](C)(C)C)c(F)c2)cc1 [Example 53, (2R)—N-(3-fluoro-4-(trimethylsilyl)phenyl)-2-(4-(methoxymethyl)phenyl)-2-(((6-oxopyrimidin-1(6H)-yl)acetyl)amino)acetamide] | 102 | 97.8 | 98.4 |
| COCc1ccc([C@@H](NC(=O)[C@H]2CNC(=O)C2)C(=O)Nc2ccc([Si](C)(C)C)c(F)c2)cc1 [Example 54, (3R)—N-((1R)-2-((3-fluoro-4-(trimethylsilyl)phenyl)amino)-1-(4-(methoxymethyl)phenyl)-2-oxoethyl)-5-oxopyrrolidine-3-carboxamide] | 102 | 95.6 | 99 |
| COCc1ccc([C@@H](NC(=O)[C@H]2CNC(=O)C2)C(=O)Nc2cc(F)c([Si](C)(C)C)cc2F)cc1 [Example 55, (3R)—N-((1R)-2-((2,5-difluoro-4-(trimethylsilyl)phenyl)amino)-1-(4-(methoxymethyl)phenyl)-2-oxoethyl)-5-oxopyrrolidine-3-carboxamide] | 102 | 95.8 | 98.6 |
| COCc1ccc([C@@H](NC(=O)Cc2nnc(C)o2)C(=O)Nc2cc(F)c([Si](C)(C)C)cc2F)cc1 [Example 56, (2R)—N-(2,5-difluoro-4-(trimethylsilyl)phenyl)-2-(4-(methoxymethyl)phenyl)-2-(((5-methyl-1,3,4-oxadiazol-2-yl)acetyl)amino)acetamide] | 102 | 97.7 | 100 |
| COCc1ccc([C@@H](NC(=O)Cn2cnccc2=O)C(=O)Nc2cc(F)c([Si](C)(C)C)cc2F)cc1 [Example 57, (2R)—N-(2,5-difluoro-4-(trimethylsilyl)phenyl)-2-(4-(methoxymethyl)phenyl)-2-(((6-oxopyrimidin-1(6H)-yl)acetyl)amino)acetamide] | 103 | 97.3 | 98.9 |
| COCc1ccc([C@@H](NC(=O)Cn2cnccc2=O)C(=O)Nc2cc(F)c([Si](C)(C)C)c(F)c2)cc1 [Example 58, (2R)—N-(3,5-difluoro-4-(trimethylsilyl)phenyl)-2-(4-(methoxymethyl)phenyl)-2-(((6-oxopyrimidin-1(6H)-yl)acetyl)amino)acetamide] | 102 | 97.1 | 98.4 |
